Numbering of substitutions follows the chain as printed. Entries after “also recorded” stand apart in the source; their conditions may differ.
Legend:
AR = biological target: T1, AR (Homo sapiens, UniProt P10275); experiment: Live-cell imaging of AR puncta (LLPS) in LNCaP cells, AR-mEGFP; assay type: cell-based; settings: 10 μM compound, 1 nM DHT
T1 construct: expressed in transfected cells; host or cells: LNCaP
T1 sequence (P10275 1-920): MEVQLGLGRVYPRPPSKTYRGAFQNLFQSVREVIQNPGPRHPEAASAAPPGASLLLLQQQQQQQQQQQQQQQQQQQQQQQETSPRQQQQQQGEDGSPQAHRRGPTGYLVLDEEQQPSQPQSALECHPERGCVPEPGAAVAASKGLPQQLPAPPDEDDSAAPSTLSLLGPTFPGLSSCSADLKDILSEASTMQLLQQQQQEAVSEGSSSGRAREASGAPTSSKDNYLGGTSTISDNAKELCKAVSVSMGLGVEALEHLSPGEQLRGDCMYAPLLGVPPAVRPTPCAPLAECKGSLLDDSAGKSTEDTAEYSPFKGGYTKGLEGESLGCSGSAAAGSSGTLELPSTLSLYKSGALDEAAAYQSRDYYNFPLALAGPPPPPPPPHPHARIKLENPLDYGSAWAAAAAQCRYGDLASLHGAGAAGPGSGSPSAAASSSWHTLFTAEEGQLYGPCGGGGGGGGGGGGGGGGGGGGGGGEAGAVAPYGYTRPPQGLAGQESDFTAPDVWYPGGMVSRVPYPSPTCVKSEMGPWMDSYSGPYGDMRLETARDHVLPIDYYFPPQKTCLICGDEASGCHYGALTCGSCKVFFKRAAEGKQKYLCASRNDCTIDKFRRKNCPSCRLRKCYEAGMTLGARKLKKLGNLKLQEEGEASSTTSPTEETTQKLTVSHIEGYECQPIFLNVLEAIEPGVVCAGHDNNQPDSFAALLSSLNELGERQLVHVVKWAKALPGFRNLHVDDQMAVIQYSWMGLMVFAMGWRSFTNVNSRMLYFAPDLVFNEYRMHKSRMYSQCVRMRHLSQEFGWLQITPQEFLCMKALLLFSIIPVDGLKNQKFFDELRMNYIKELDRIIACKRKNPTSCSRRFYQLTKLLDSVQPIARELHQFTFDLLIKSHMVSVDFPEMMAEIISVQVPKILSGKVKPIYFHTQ
Description: (§1) Cells were grown on 24-well glass bottom plate (Cellvis, P24-1.5H-N) and images were taken with the Leica TCS SP8 confocal microscopy system using a 100× oil objective (NA=1.4). Cells were imaged on a heated stage (37° C.) and supplemented with warmed (37° C.) humidified air. The microscope was enclosed in an incubation chamber heated to 37° C.
(§2) For compounds treatment assay, LNCaP cells were transfected with an expression vector for AR (AR or AR F877L/T878A)-mEGFP using steroid hormone-free and phenol red-free RPMI media for 24 hours before compound treatment. After 10 μM compounds treatment for 3 hour, LNCaP cells were added with 1 nM DHT. For ligand-independent AR V7-mEGFP expressing LNCaP cells, starvation step is skipped and compounds were added 12 hours after transfection. The final concentration of DMSO was 0.1%. Cells were subjected to microscopic observation every 30 mins after DHT/compounds were added.
(§3) Data was analyzed by images collected from 100 representative fields in each group. The spots quantification was performed based on the area and intensity of the spots through green (AR-mEGFP) channel. Fluorescent images were processed and assembled into figures using LAS X (Leica) and Fiji.
(§4) After 10 μM compounds treatment for 3 hour, LNCaP cells were added with 1 nM DHT. […]

AR F877L/T878A = biological target: T2, AR F877L/T878A (Homo sapiens, UniProt P10275, F877L/T878A); experiment: Live-cell imaging of AR puncta (LLPS) in LNCaP cells, AR F877L/T878A-mEGFP; assay type: cell-based; settings: 10 μM compound, 1 nM DHT
T2 construct: expressed in transfected cells; host or cells: LNCaP
T2 sequence (P10275 1-920 F877L/T878A): T1 sequence (P10275 1-920) with F877L, T878A
Description: as §1, §2, §3, §4

Structure (SMILES): CC(C)(c1ccc(C#Cc2cnc(NS(C)(=O)=O)nc2)cc1)c1cc(Cl)c(OCCCl)c(C#N)c1 [Compound 60, N-(5-((4-(2-(3-chloro-4-(2-chloroethoxy)-5-cyanophenyl)propan-2-yl)phenyl)ethynyl)pyrimidin-2-yl)methanesulfonamide]
- puncta formation / LLPS of AR (AR): could suppress the phase separation; also recorded: abolished the puncta formation
- puncta formation / LLPS of enzalutamide-resistant AR mutant F877L/T878A (AR F877L/T878A): could suppress the phase separation; also recorded: abolished the puncta formation; also recorded: impaired the LLPS

— patent US20240150301A1, “METHODS OF MODULATING ANDROGEN RECEPTOR CONDENSATES” (ETERN BIOPHARMA (SHANGHAI) CO., LTD., priority 2021, published 2024)
